Consider 7 compounds from patent publication US20050119253A1, “Method of treating mental disorders using of D4 and 5-HT2A antagonists, inverse agonists or partial agonists” (priority 2003, published 2005).

For experiment [1] the following is noted: metabolite from biotransformation in the liver; cited from earlier work.
Another experiment has as its target 5HT1F (Homo sapiens, UniProt P30939). Briefly: pKi of test compounds, 5HT1F receptor. In kind it is binding.
Another experiment has as its target T1, 5HT1A (Homo sapiens, UniProt P08908).
T1 sequence (P08908 1-422): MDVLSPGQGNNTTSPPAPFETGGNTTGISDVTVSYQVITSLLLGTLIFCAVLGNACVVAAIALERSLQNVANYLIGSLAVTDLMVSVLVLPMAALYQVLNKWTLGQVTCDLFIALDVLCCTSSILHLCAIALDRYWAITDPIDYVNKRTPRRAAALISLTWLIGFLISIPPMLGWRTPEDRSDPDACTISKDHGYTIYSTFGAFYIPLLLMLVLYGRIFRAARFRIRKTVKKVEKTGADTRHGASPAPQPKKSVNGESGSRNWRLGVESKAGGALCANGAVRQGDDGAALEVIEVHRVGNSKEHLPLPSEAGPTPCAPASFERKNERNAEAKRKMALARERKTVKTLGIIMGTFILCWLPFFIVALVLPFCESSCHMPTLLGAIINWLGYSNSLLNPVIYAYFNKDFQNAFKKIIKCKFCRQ
The experiment is described as follows: pKi of test compounds, 5HT1A receptor. In kind it is binding.

The next experiment concerns the target T2, Alpha1A (Homo sapiens, UniProt P35348).
T2 sequence (P35348 1-466): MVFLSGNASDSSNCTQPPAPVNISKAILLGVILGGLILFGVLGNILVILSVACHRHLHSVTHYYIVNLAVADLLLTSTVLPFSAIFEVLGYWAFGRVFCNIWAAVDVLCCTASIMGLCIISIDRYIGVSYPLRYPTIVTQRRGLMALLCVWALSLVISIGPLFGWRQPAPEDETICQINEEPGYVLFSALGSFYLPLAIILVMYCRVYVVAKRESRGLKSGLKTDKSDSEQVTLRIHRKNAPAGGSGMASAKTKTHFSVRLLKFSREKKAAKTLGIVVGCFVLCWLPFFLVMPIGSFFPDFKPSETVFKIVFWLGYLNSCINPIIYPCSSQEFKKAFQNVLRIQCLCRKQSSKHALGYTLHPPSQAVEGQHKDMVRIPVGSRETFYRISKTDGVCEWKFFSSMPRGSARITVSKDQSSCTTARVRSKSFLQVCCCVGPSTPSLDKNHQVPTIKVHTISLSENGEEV
The experiment is described as follows: pKi of test compounds, adrenergic receptor Alpha1A. It counts as binding.

The target in the next experiment is T3, Alpha2A (Homo sapiens, UniProt P08913).
T3 sequence (P08913 1-465): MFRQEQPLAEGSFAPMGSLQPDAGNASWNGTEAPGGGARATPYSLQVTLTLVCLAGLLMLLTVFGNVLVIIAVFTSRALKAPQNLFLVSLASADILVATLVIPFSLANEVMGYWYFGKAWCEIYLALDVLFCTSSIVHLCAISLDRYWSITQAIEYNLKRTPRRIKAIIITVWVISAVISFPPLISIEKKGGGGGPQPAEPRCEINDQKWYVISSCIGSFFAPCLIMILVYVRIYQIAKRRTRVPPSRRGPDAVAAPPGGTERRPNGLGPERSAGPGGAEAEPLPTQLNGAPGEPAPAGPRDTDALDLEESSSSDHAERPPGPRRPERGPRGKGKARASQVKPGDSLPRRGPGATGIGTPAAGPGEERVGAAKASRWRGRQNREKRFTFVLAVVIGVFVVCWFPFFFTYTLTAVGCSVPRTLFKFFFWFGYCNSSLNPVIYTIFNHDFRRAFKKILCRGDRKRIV
The experiment is described as follows: pKi of test compounds, adrenergic receptor Alpha2A. It counts as binding.

The target of the next experiment is Alpha2B (Homo sapiens, UniProt P18089). The experiment is described as follows: pKi of test compounds, adrenergic receptor Alpha2B. It counts as binding.
Sequence of Alpha2B (P18089 whole entry): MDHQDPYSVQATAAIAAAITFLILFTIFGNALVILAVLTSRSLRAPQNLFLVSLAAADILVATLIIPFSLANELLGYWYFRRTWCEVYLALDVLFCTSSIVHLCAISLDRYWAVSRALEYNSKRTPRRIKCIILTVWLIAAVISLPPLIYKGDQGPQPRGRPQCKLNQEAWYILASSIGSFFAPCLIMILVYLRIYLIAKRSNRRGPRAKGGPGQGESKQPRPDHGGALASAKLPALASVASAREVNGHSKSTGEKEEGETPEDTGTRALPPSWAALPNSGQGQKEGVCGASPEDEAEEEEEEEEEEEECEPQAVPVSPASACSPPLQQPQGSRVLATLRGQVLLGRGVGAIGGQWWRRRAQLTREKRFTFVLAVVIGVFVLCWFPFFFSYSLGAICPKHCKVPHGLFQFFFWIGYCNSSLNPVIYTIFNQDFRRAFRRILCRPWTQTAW
The target in another experiment is T4, Alpha2C (Homo sapiens, UniProt P18825).
T4 sequence (P18825 1-462): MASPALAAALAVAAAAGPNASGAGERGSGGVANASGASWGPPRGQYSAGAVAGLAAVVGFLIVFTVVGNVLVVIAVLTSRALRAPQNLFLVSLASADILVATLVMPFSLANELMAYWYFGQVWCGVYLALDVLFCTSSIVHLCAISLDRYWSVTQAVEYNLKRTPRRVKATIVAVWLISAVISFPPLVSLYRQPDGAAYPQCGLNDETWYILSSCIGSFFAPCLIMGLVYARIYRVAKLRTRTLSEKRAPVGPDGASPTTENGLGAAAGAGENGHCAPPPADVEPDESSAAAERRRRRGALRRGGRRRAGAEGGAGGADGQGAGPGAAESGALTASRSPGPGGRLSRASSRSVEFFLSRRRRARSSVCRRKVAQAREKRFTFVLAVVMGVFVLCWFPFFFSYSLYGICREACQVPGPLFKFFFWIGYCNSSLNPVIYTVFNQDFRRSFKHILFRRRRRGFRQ
Briefly: pKi of test compounds, adrenergic receptor Alpha2C. In kind it is binding.

A further experiment relates to acute schizophrenia. The following applies: neuroleptic responsive inpatients with acute schizophrenia; cited from earlier work.
The next experiment has as its target D1 (Homo sapiens, UniProt P21728). Briefly: pKi of test compounds, D1 receptor. It counts as binding.
The next experiment deals with D3 (Homo sapiens, UniProt P35462). Briefly: pKi of test compounds, D3 receptor. In kind it is binding. To be noted: for Ki: read-out: pKi D3 (converted).
Sequence of D3 (P35462 whole entry): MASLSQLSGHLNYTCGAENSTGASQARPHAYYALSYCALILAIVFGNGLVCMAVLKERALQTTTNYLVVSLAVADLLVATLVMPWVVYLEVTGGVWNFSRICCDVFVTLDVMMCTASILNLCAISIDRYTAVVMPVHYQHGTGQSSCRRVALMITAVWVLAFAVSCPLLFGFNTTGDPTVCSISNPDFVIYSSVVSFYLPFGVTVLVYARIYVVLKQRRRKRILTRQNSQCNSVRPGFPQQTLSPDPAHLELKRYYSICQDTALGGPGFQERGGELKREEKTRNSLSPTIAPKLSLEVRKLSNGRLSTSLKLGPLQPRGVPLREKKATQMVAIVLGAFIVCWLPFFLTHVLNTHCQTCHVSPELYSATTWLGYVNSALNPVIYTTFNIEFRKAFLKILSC
The next experiment concerns the target T5, D4 receptor (Homo sapiens, UniProt P21917).
T5 sequence (P21917 1-419): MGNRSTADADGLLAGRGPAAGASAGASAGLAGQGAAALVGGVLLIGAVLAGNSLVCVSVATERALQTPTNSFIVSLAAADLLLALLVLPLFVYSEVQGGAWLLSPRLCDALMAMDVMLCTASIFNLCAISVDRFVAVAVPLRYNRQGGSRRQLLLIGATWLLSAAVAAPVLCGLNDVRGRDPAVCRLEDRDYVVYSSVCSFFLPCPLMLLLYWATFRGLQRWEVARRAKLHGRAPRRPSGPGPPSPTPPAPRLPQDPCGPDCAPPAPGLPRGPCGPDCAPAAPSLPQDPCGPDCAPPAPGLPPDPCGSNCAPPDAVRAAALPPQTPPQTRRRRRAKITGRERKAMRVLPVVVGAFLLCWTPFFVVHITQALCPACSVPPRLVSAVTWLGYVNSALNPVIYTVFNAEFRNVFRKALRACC
The experiment is described as follows: pKi of test compounds, D4 receptor. It counts as binding. The following applies: D4; read-out: pKi D4 (converted).

A further experiment deals with 5HT1B (Homo sapiens, UniProt P28222). Briefly: pKi of test compounds, 5HT1B receptor. It counts as binding.
Sequence of 5HT1B (P28222 whole entry, species assumed): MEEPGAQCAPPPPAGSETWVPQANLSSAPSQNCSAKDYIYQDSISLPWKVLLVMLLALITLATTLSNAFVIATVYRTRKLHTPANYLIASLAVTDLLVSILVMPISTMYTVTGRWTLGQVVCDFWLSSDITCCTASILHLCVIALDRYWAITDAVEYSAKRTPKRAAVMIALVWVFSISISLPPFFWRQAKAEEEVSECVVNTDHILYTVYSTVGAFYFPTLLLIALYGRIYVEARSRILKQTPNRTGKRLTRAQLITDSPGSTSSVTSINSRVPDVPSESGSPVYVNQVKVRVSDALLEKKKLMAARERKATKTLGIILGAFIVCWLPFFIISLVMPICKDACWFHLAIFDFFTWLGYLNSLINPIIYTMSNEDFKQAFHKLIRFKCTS
The target in another experiment is 5HT1D (Homo sapiens, UniProt P28221). The experiment is described as follows: pKi of test compounds, 5HT1D receptor. It counts as binding. To be noted: read-out: pKi 5HT1D (converted).
Sequence of 5HT1D (P28221 whole entry, species assumed): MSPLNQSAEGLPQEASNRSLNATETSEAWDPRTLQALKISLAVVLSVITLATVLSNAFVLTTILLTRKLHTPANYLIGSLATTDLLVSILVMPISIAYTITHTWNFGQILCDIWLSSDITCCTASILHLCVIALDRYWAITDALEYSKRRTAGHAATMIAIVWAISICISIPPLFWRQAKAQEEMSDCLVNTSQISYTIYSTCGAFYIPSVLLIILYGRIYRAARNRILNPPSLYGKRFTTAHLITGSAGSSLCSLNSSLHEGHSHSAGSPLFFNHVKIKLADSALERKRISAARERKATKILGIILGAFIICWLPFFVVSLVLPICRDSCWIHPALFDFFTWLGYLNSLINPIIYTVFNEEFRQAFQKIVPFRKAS
In the next experiment the target is 5HT1E (Homo sapiens, UniProt P28566). The experiment is described as follows: pKi of test compounds, 5HT1E receptor. It counts as binding.
Sequence of 5HT1E (P28566 whole entry, species assumed): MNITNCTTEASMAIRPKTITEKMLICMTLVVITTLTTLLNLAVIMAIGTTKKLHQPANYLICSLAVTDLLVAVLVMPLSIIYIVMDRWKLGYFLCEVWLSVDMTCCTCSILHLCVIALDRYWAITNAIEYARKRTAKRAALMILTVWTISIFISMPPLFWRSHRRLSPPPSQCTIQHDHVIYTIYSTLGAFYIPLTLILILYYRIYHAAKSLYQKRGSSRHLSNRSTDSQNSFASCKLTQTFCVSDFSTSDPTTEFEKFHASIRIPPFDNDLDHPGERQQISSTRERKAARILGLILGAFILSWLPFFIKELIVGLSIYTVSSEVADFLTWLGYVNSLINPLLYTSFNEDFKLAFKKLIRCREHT
Another experiment concerns the target 5-HT2A receptor (Homo sapiens, UniProt P28223). The experiment is described as follows: pKi of test compounds, 5-HT2A receptor. It counts as binding.
Another experiment deals with T6, 5HT2C (Homo sapiens, UniProt P28335).
T6 sequence (P28335 33-458): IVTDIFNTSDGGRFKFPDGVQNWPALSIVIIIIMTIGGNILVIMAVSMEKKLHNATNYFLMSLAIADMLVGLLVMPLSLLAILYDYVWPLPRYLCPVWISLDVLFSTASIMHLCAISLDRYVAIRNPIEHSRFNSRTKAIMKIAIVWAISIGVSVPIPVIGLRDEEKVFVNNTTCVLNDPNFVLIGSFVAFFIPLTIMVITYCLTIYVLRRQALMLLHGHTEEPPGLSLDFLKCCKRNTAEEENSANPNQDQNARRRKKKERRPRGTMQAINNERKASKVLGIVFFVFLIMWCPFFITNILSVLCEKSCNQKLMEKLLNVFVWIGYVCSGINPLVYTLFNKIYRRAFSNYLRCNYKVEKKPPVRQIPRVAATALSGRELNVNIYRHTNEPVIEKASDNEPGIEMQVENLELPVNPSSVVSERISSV
The experiment is described as follows: pKi of test compounds, 5HT2C receptor. It counts as binding.

A further experiment deals with 5HT6rat (Rattus norvegicus, UniProt P31388). Briefly: pKi of test compounds, 5HT6 receptor. In kind it is binding. The following applies: rat.
Sequence of 5HT6rat (P31388 whole entry): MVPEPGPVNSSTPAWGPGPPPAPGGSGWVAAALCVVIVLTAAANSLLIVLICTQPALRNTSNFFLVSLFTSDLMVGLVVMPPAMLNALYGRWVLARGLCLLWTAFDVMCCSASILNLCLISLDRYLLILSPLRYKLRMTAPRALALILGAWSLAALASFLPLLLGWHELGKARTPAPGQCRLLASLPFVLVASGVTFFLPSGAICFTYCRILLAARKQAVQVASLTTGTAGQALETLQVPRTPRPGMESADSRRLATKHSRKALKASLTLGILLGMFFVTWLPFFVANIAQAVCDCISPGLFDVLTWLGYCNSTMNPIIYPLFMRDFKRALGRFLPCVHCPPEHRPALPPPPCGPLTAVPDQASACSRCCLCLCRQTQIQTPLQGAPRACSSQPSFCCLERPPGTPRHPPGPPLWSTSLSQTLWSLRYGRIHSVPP
A further experiment has as its target 5HT7rat (Rattus norvegicus, UniProt P32305). Briefly: pKi of test compounds, 5HT7 receptor. In kind it is binding.
The target of the next experiment is Beta1 (Homo sapiens, UniProt P08588). The experiment is described as follows: pKi of test compounds, adrenergic receptor Beta1. In kind it is binding.
Sequence of Beta1 (P08588 whole entry): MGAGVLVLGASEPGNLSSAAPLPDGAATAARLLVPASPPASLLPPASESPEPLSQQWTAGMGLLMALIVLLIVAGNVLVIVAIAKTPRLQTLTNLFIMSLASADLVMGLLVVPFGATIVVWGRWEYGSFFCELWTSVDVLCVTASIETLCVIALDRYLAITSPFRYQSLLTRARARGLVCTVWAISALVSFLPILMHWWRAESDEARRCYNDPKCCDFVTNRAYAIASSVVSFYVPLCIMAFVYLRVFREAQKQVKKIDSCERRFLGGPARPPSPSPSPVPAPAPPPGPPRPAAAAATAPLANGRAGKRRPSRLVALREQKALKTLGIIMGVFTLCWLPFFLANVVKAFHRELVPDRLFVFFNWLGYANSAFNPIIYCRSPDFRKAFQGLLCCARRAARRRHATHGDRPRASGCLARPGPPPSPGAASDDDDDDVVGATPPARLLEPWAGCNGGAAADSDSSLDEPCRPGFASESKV
The next experiment has as its target Beta2 (Homo sapiens, UniProt P07550). The experiment is described as follows: pKi of test compounds, adrenergic receptor Beta2. In kind it is binding.
In the next experiment the target is other 5HT receptors. The experiment is described as follows: pKi towards other 5HT receptors. It counts as binding. To be noted: 5-HT1A, 1B, 1D, 1E, 1F, 5-HT2B, 5-HT2C, 5-HT6 (rat), 5-HT7 (rat).
The target of a further experiment is other Dopamine receptors. The experiment is described as follows: pKi towards other Dopamine receptors. It counts as binding. To be noted: D1, D2 and D3.
The next experiment deals with D2 (Homo sapiens, UniProt P14416). The experiment is described as follows: pKi of test compounds, D2 receptor. In kind it is binding.
In a further experiment the target is 5HT2B (Homo sapiens, UniProt P41595). Briefly: pKi of test compounds, 5HT2B receptor. In kind it is binding.

Sequence of Beta2 (P07550 whole entry): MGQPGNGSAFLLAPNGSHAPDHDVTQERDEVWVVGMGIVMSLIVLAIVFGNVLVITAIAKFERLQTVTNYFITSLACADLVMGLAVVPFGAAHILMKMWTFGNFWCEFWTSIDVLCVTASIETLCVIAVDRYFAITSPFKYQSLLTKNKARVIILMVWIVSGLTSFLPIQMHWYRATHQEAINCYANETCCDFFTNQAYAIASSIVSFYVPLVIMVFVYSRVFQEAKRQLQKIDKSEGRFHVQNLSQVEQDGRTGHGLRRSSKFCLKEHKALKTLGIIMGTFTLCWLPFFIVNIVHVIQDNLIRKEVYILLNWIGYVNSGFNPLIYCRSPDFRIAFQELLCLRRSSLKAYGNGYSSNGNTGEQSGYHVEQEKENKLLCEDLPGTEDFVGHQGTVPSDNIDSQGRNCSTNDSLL
Sequence of 5HT1F (P30939 whole entry, species assumed): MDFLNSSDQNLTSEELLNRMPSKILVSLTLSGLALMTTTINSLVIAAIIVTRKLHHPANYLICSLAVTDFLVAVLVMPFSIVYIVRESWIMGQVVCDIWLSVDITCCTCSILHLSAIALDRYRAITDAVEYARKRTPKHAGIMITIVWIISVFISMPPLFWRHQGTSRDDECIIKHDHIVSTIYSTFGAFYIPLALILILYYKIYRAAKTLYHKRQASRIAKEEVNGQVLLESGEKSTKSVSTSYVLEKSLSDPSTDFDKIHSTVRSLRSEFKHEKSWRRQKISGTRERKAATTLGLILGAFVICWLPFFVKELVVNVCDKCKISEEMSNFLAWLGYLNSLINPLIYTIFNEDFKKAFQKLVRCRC
Sequence of 5HT7rat (P32305 whole entry): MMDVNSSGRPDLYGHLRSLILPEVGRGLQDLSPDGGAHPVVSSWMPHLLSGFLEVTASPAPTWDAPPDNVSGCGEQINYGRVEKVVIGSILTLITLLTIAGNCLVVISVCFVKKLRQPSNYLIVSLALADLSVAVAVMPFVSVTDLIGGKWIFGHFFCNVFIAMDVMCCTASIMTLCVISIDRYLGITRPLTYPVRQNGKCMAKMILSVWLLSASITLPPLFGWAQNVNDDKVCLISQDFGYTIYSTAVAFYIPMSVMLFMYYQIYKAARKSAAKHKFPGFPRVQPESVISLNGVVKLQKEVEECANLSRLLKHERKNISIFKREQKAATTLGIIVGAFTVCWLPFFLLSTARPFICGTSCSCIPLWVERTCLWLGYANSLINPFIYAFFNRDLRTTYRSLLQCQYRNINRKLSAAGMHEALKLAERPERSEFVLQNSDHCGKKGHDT
Sequence of 5-HT2A receptor (P28223 whole entry): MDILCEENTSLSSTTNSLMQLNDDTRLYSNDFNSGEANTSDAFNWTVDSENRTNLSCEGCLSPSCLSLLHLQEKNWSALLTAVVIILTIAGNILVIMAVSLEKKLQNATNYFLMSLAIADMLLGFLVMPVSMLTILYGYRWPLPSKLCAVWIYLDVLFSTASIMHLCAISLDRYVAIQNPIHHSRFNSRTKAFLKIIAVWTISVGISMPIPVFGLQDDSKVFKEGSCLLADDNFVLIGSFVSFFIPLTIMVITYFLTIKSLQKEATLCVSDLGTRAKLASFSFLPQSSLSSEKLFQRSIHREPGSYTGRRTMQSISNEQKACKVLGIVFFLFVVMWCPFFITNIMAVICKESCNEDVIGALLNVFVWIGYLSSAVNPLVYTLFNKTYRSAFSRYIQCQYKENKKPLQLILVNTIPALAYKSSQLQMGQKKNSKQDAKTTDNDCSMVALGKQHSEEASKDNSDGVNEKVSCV
Description for other Dopamine receptors: ‘Other Dopamine receptors’ are, for instance, D1, D2 and D3.
pKi values of test compounds for Dopamine receptors can be measured using commonly known assays.

With `Cc1nc2n(c(=O)c1CCN1CCC(c3noc4cc(F)ccc34)CC1)CCCC2O` (stereo not drawn) [9-hydroxyrisperidone], the “pharmacological activity and intensity relative to parent risperidone” value in experiment [1] is “of the same pharmacological activity and intensity as parent risperidone”.

On 5HT1F, `CN1CCN(C2=Nc3cc(Cl)ccc3Nc3ccccc32)CC1` [Clozapine] had a Ki of 100 to 1000 nM.

On to `Fc1cccc2c1O[C@H]1CNC[C@@H]1O2` [Fluparoxan], for which the Ki on 5HT1A is 100 to 1000 nM; on Alpha1A, 100 to 1000 nM; at Alpha2A, 1 to 10 nM; on Alpha2B it was 1 to 10 nM; at Alpha2C, 1 to 10 nM.

As for `Clc1ccc(N2CCN(Cc3c[nH]c4ncccc34)CC2)cc1` [L-745,870], in the experiment on acute schizophrenia, the antipsychotic efficacy entry is “ineffective as an antipsychotic”.

Consider `CN1CC2c3ccccc3Oc3ccc(Cl)cc3C2C1` (stereo not drawn) [ORG5222], for which the Ki on D1, at D3, at D4 receptor, on 5HT1A, on 5HT1B and on 5HT1D was 1 to 10 nM in each case. The Ki on 5HT1E was 10 to 100 nM; at 5-HT2A receptor it was less than 1 nM; at 5HT2C it was less than 1 nM; at 5HT6rat (read-out: pKi 5HT6rat (converted)), less than 1 nM; on 5HT7rat it was less than 1 nM; on Alpha1A it was less than 1 nM. Further, the Ki on Alpha2A is 1 to 10 nM; at Alpha2C, 10 to 100 nM; on Beta1, greater than 1000 nM; at Beta2, greater than 1000 nM.

For the compound `NC(=O)C1(N2CCCCC2)CCN(CCCC(=O)c2ccc(F)cc2)CC1` [Pipamperone, 1′-[3-(p-Fluorobenzoyl)propyl]-[1,4′-bipiperidine]-4′-carboxamide], the Ki is 100 to 1000 nM at D3; 1 to 10 nM on D4 receptor; greater than 1000 nM at 5HT1A; 100 to 1000 nM on 5HT1B; 100 to 1000 nM at 5HT1D; greater than 1000 nM on 5HT1E. For the same compound, the Ki was greater than 1000 nM at 5HT1F; 100 to 1000 nM on Alpha2A; 100 to 1000 nM on Alpha2C; greater than 1000 nM at Beta1; greater than 1000 nM at Beta2. In addition, the “pKi value towards other 5HT receptors” value at other 5HT receptors is listed as “less than 8”. Besides, at other Dopamine receptors, the “pKi value towards other Dopamine receptors” value is recorded as “less than 8”.

For the compound `O=C(CC1CCN(CCOc2cccc3c2OCCO3)C1)c1ccc(F)cc1` (stereo not drawn) [S16924], at D2, the “pKi D2” value is recorded as 7-8. On D3, the “pKi D3” value was 7-8. At 5HT1A, the “pKi 5HT1A” value was 8-9. Besides, the “pKi 5-HT2A” value on 5-HT2A receptor is reported as greater than 9. Also, the “pKi 5HT2B” value at 5HT2B is 8-9. Besides, the “pKi 5HT2C” value at 5HT2C is on record as 7-8. For the same compound, on 5HT6rat, the “pKi 5HT6rat” value is 7-8. For the same compound, the “pKi 5HT7rat” value at 5HT7rat is reported as 7-8. Further, the “pKi Alpha1A” value on Alpha1A is recorded as 8-9. For the same compound, at Alpha2A, the “pKi Alpha2A” value is listed as 6-7. Besides, on Alpha2B, the “pKi Alpha2B” value was 7-8. Further, on Alpha2C, the “pKi Alpha2C” value is given as 6-7. Also, the “pKi Beta1” value on Beta1 is less than 6. The “pKi Beta2” value at Beta2 is given as less than 6.
